# Results published in patent US10052330B2, “Substituted pyrido[3,4-b]pyrazines as Syk inhibitors” (HUTCHISON MEDIPHARMA LIMITED, priority 2011, dated 2018).
# Read-outs that look alike come from different tables or passages of the source.
# How the values were obtained:
# Syk kinase = Syk kinase (Homo sapiens, UniProt P43405); assay: Syk kinase enzymatic assay (Kit-Tyr 2 Peptide); assay type: biochemical; details: 8 concentrations, 1 μM down to 0.0003 μM; upper bound of each range is 'less than'; read-out: IC50: Enzymatic Activity (Syk kinase)
# RBL-2H3 cells = assay: IgE-induced Beta-hexosaminidase secretion in RBL-2H3 cells; assay type: cell-based; details: Rattus norvegicus, upper bound of each range is 'less than', read-out: IC50, IgE-induced Beta-hexosaminidase secretion
# [1] = RBL-2H3, RBL-2H3 cells sensitized with SPE-7, stimulated with DNP-BSA
# [2] = RBL-2H3 cells sensitized with SPE-7, stimulated with DNP-BSA
SMILES,IC50 (Syk kinase) [nM],IC50 (RBL-2H3 cells; [1]) [nM],IC50 (RBL-2H3 cells; [2]) [nM]
CCS(=O)(=O)N1CCN(c2ccc(-c3cc4nccnc4c(NC[C@@H]4CNCCO4)n3)cc2)CC1 [Compound 435],1 to 100,1 to 100,
CC(C)(F)C(=O)N1CCN(c2ccc(-c3cc4nccnc4c(NC[C@@H]4CNCCO4)n3)cc2)CC1 [Compound 437],1 to 100,1 to 100,
CC(F)(F)C(=O)N1CCN(c2ccc(-c3cc4nccnc4c(NC[C@@H]4CNCCO4)n3)cc2)CC1 [Compound 438],1 to 100,1 to 100,
O=C(C1CC1(F)F)N1CCN(c2ccc(-c3cc4nccnc4c(NC[C@@H]4CNCCO4)n3)cc2)CC1 (stereo partly shown) [Compound 439],1 to 100,1 to 100,
CS(=O)(=O)N1CCN(c2ccc(-c3cc4nccnc4c(NC[C@@H]4CNCCO4)n3)cn2)CC1 [Compound 440],1 to 100,100 to 1000,
CCS(=O)(=O)N1CCN(c2ccc(-c3cc4nccnc4c(NC[C@@H]4CNCCO4)n3)cn2)CC1 [Compound 441],1 to 100,100 to 1000,
CS(=O)(=O)N1CCN(c2ccc(-c3cc4nccnc4c(NCC4CNCCC4(F)F)n3)cn2)CC1 (stereo not shown) [Compound 442],1 to 100,1 to 100,
CCS(=O)(=O)N1CCN(c2ccc(-c3cc4nccnc4c(NCC4CNCCC4(F)F)n3)cn2)CC1 (stereo not shown) [Compound 443],1 to 100,1 to 100,
CS(=O)(=O)N1CCN(c2ccc(-c3cc4nccnc4c(NCC4CNCCC4(F)F)n3)cc2)CC1 (stereo not shown) [Compound 444],1 to 100,1 to 100,
CCS(=O)(=O)N1CCN(c2ccc(-c3cc4nccnc4c(NCC4CNCCC4(F)F)n3)cc2)CC1 (stereo not shown) [Compound 445],1 to 100,1 to 100,
CCS(=O)(=O)N1CCC(c2ccc(-c3cc4nccnc4c(NC[C@@H]4CNCCO4)n3)cc2)CC1 [Compound 446],1 to 100,1 to 100,
CS(=O)(=O)N1CCC(c2ccc(-c3cc4nccnc4c(NCC4CNCCC4(F)F)n3)cc2)CC1 (stereo not shown) [Compound 447],1 to 100,1 to 100,
"CN1CCN(c2ccc(-c3cc4nccnc4c(NC[C@@H]4CN(C(=O)C(F)F)CCO4)n3)cc2)CC1 [Compound 449, (R)-2,2-difluoro-1-(2-((7-(4-(4-methylpiperazin-1-yl)phenyl)pyrido[4,3-b]pyrazin-5-ylamino)methyl)morpholino)ethanone]",1 to 100,1 to 100,
Cc1cc(-c2cc3nccnc3c(NC[C@@H]3CN(C(=O)C(F)F)CCO3)n2)ccc1N1CCOCC1 [Compound 450],1 to 100,1 to 100,
O=C(C(F)F)N1CCO[C@H](CNc2nc(-c3ccc(N4CCOCC4)c(F)c3)cc3nccnc23)C1 [Compound 451],1 to 100,1 to 100,
CN(C)c1ccc(-c2cc3nccnc3c(NC[C@@H]3CN(C(=O)C(F)F)CCO3)n2)cc1 [Compound 455],1 to 100,1 to 100,
CN(C)c1ccc(-c2cc3nccnc3c(NC[C@@H]3CN(C(=O)C(F)F)CCO3)n2)cc1F [Compound 456],1 to 100,1 to 100,
O=C(C(F)F)N1CCO[C@H](CNc2nc(-c3ccc(C4CCNCC4)cc3)cc3nccnc23)C1 [Compound 458],1 to 100,100 to 1000,
CN1CCC(c2ccc(-c3cc4nccnc4c(NC[C@@H]4CN(S(C)(=O)=O)CCO4)n3)cc2)CC1 [Compound 460],1 to 100,1 to 100,

SMILES,IC50 (Syk kinase) [nM],IC50 (RBL-2H3 cells; [1]) [nM],IC50 (RBL-2H3 cells; [2]) [nM]
CS(=O)(=O)N1CCO[C@H](CNc2nc(-c3ccc(N4CCNCC4)cc3)cc3nccnc23)C1 [Compound 462],1 to 100,100 to 1000,
CN1CCC(c2ccc(-c3cc4nccnc4c(NC[C@@H]4CN(C(=O)C(F)F)CCO4)n3)cc2)CC1 [Compound 463],1 to 100,100 to 1000,
CCN1CCC(c2ccc(-c3cc4nccnc4c(NC[C@@H]4CN(C(=O)C(F)F)CCO4)n3)cc2)CC1 [Compound 464],1 to 100,100 to 1000,
CS(=O)(=O)N1CCC(c2ccc(-c3cc4nccnc4c(NC[C@@H]4CN(C(=O)C(F)F)CCO4)n3)cc2)CC1 [Compound 465],1 to 100,1 to 100,
"CC(=O)N1CCN(c2ccc(-c3cc4nccnc4c(NC[C@H]4CN(C(=O)C(F)F)CCO4)n3)cc2)CC1 [Compound 466, (S)-1-(2-((7-(4-phenylpiperazin-1-yl)ethanone[4,3-b]pyrazin-5-ylamino)methyl)morpholino)-2,2-difluoroethanone]",1 to 100,,1 to 100
CS(=O)(=O)N1CCN(c2ccc(-c3cc4nccnc4c(NC[C@@H]4CN(C(=O)C(F)F)CCO4)n3)cc2)CC1 [Compound 467],1 to 100,1 to 100,
CC(=O)N1CCC(c2ccc(-c3cc4nccnc4c(NC[C@@H]4CN(S(C)(=O)=O)CCO4)n3)cc2)CC1 [Compound 468],1 to 100,100 to 1000,
CS(=O)(=O)N1CCC(c2ccc(-c3cc4nccnc4c(NC[C@@H]4CN(S(C)(=O)=O)CCO4)n3)cc2)CC1 [Compound 469],1 to 100,1 to 100,
CC(=O)N1CCC(c2ccc(-c3cc4nccnc4c(NC[C@@H]4CN(C(=O)C(F)F)CCO4)n3)cc2)CC1 [Compound 470],1 to 100,1 to 100,
CNc1ccc(-c2cc3nccnc3c(NC[C@@H]3CNCCO3)n2)cc1C#N [Compound 473],1 to 100,1 to 100,
CN(C)c1ccc(-c2cc3nccnc3c(NC[C@@H]3CNCCO3)n2)cc1C#N [Compound 474],1 to 100,1 to 100,
"OCCCOc1ccc(-c2cc3nccnc3c(NC[C@@H]3CNCCO3)n2)cc1 [Compound 476, (S)-3-(4-(5-(morpholin-2-ylmethylamino)pyrido[4,3-b]pyrazin-7-yl)phenoxy)propan-1-ol]",1 to 100,1 to 100,
"CC(=O)OCCCOc1ccc(-c2cc3nccnc3c(NC[C@@H]3CNCCO3)n2)cc1 [Compound 477, (S)-3-(4-(5-(morpholin-2-ylmethylamino)pyrido[4,3-b]pyrazin-7-yl)phenoxy)propyl acetate]",100 to 1000,1 to 100,
"CCN1CCC(c2ccc(-c3cc4nccnc4c(NC[C@@H]4CN(S(C)(=O)=O)CCO4)n3)cc2)CC1 [Compound 479, (R)-7-(4-(1-ethylpiperidin-4-yl)phenyl)-N-((4-(methylsulfonyl)morpholin-2-yl)methyl)pyrido[4,3-b]pyrazin-5-amine]",1 to 100,,1 to 100
"CN(CCO)c1ccc(-c2cc3nccnc3c(NCC3CNCCC3(F)F)n2)cc1 (stereo not shown) [Compound 485, 2-((4-(5-((4,4-difluoropiperidin-3-yl)methylamino)pyrido[4,3-b]pyrazin-7-yl)phenyl)(methyl)amino)ethanol]",1 to 100,1 to 100,
CCN1CCN(c2ccc(-c3cc4nccnc4c(NC[C@@H]4CN(S(C)(=O)=O)CCO4)n3)cc2)CC1 [Compound 487],1 to 100,100 to 1000,
CCN1CCN(c2ccc(-c3cc4nccnc4c(NC[C@@H]4CN(C(=O)C(F)F)CCO4)n3)cc2)CC1 [Compound 488],1 to 100,1 to 100,
O=C(C(F)F)N1CCO[C@H](CNc2nc(-c3ccc(N4CCN(CCO)CC4)cc3)cc3nccnc23)C1 [Compound 489],1 to 100,1 to 100,
O=C(C(F)F)N1CCO[C@H](CNc2nc(-c3ccc(N4CCN(CCCO)CC4)cc3)cc3nccnc23)C1 [Compound 490],1 to 100,1 to 100,
